“Also recorded” adds a separate entry of the source. Read-outs that look alike come from different tables or passages of the source.
How the values were obtained:
LRRK2^WT [1] = target: T1, LRRK2^WT (Mus musculus, UniProt Q5S006); experiment: Western blot LRRK2 degradation in WT MEFs; assay type: cell-based; details: for DC50 / Dmax on WT MEFs / Dmax: dose response; for Dmax: read-out: Dmax on WT MEFs
T1 construct: endogenous in cells; host or cells: primary wild-type mouse embryonic fibroblasts (MEFs)

LRRK2^WT [2] = experiment: Western blot LRRK2 degradation in WT MEFs; assay type: cell-based, mouse; details: for LRRK2 degradation (in words): WT MEFs and LRRK2^G2019S MEFs
LRRK2 pSer935 = experiment: LRRK2 Ser935 dephosphorylation (immunoblot) in WT MEFs; assay type: cell-based, mouse; details: for EC50: Mus musculus, dose response, read-out: WT MEFs pSer935 LRRK2-dephosphrylation EC50; for T1/2 WT-pSer935-LRRK2: WT MEFs
Protocol: Western blot degradation assays for the LRRK2 protacs were performed with WT and PD-associated LRRK2 [G2019S] mouse embryonic fibroblasts (MEFs). The second-generation PROTACs were tested in parallel with the first generation PROTACs SD75, SD82, and SD100. The compounds were tested at 33 nM or […] concentrations for 4 hours or 24 hours, running two biological replicates per condition and achieving quantifications representative of both replicates. Analysis by quantitative immunoblotting was performed with readouts of the total LRRK2 (antibody recognizes epitope in C-terminus of protein), Rab10 pThr73 (physiological substrate) and LRRK2 pSer935 (biomarker phosphorylation site).
Primary MEFs were generated as described in a previous study (Wiggin et al., Mol. Cell Biol. 2002 April; 22(8):2871-81.). Briefly, the uterine horn was collected from adult female mice at day E12.5 and transferred to a 10 cm tissue culture dish containing cold PBS. Two forceps were used to tear the yolk sacs to isolate each embryo. Forceps were cleaned thoroughly with 70% ethanol between each embryo isolation. The embryos were culled, and a tissue piece was collected in a PCR tube for genotyping. The red tissue of the embryo, which grows to become the heart and liver, was removed. The remainder of the embryo was minced with a scalpel blade and incubated with 7.5 ml trypsin-EDTA solution for 10 minutes in a 37° C. tissue culture CO2 incubator. The dish was removed from the incubator and checked under a light microscope for single cells. 7.5 ml complete media was added to the trypsinised cells, and the cell suspension was transferred to a 15 ml Falcon tube, centrifuged at 1200 rpm for 5 minutes at room temperature. The trypsin was aspirated, the cell pellet was resuspended in 5 ml fresh complete media, and the cell suspension was plated in a 60 mm tissue culture dish and incubated in a 37° C., 5% CO2 tissue culture incubator. The MEFs at this stage were considered as passage 0 and were passaged and expanded for experimental use once the genotype was confirmed by allelic sequencing and immunoblotting. MEFs were cultured in Dulbecco's modified Eagle medium (DMEM) containing 10% (v/v) fetal bovine serum (FBS), 2 mM L-glutamine, 100 U/ml penicillin, and 100 μg/ml streptomycin supplemented with 1× non-essential amino acids and 1 mM sodium pyruvate.
Culturing and passaging of adherent cell lines were carried out using aseptic technique in CL1 or CL2 (for PBMC isolation) biological safety cabinets. All cells were incubated in a 37° C. incubator with 5% CO2. Cell lines were regularly tested for mycoplasma contamination. For western blot assay, the cells were seeded in 6-well plates. After treating with testing compounds at indicated concentrations and time period, the media was removed and the cells were washed with PBS and lysed in 100 μl ice-cold complete lysis buffer containing 50 mM Tris-HCl pH 7.4, 1 mM EGTA, 10 mM 2-glycerophosphate, 50 mM sodium fluoride, 5 mM sodium pyrophosphate, 270 mM sucrose, supplemented with 1 μg/ml microcystin-LR, 1 mM sodium orthovanadate, complete EDTA-free protease inhibitor cocktail (Roche) and 1% (v/v) Triton X-100. The cells were immediately placed on ice and were scraped and collected into 1.5 ml Eppendorf tubes. Cell lysates were incubated on ice for 10 minutes prior to centrifugation at 15,000 g at 4° C. for 15 minutes. The cell pellet was discarded, and supernatant was collected for analysis by quantitative immunoblotting. For long term storage, the supernatant was flash frozen and stored at −80° C. Protein concentrations of cell lysates were determined using the Bradford assay.
Cell lysates containing a quarter of a volume of 4× NuPAGE LDS sample buffer (NP0007) supplemented with 5% β-mercaptoethanol, were heated at 95° C. for 5 minutes. […]

LRRK2^G2019S = target: T2, LRRK2^G2019S (Mus musculus, UniProt Q5S006, G2019S); experiment: Western blot LRRK2 degradation in LRRK2^G2019S MEFs; assay type: cell-based
T2 construct: endogenous in cells; host or cells: LRRK2[G2019S] mouse embryonic fibroblasts (MEFs)

LRRK2 [3] = target: T3, LRRK2 (Homo sapiens, UniProt Q5S007); experiment: NanoBRET-based ternary binding and cooperativity assay; design: host or cells: HEK293 (digitonin-permeabilized); details: permeabilized HEK293 cells, without VCB; read-out: IC50 LRRK2 engagement in the absence of VCB
Protocol: (§1) The HEK293 cells were transfected with LRRK2-NanoLuc fusion vector (Promega, NV3401) following Promega's protocol and seeded into white 384-well plate (Corning3570) at a density of 6000 cells/well. The cells were then treated with 50 μg/mL of digitonin, 125 nM of LRRK2 tracer, testing compounds at decreasing concentrations (11 concentrations with 2-fold serial dilution starting from 10 μM) or testing compounds and VCB mix (11 concentrations with 2-fold serial dilution starting from 10 μM compound for the compound. The first 6 concentrations of VCB start from 32 μM with 2-fold dilution, the last 5 concentrations of VCB keep at 1 μM), and NanoBRET NanoGlo Substrate (Promega) at concentration recommended by the manufacturer's protocol. In the maximum signal control samples (DMSO control), DMSO was added instead of testing compounds. In the minimum signal control samples (no tracer control), DMSO and LRRK2 tracer dilution buffer were used to replace testing compounds and LRRK2 tracer separately. The filtered luminescence was measured within 10 min following addition of the substrate on a PHERAstar (BMG LABTECH) plate reader equipped with a 450-nm bandpass filter (donor) and a 600-nm long pass filter (acceptor). The fractional occupancy was calculated according to the equation: fractional occupancy=(mBRETtesting compound−mBRETno tracer control)/(mBRETDMSO control−mBRETno tracer control).

LRRK2 [4] = target: T3, LRRK2; experiment: as above; design: fused on or other part: NanoLuc luciferase fused to LRRK2 as the BRET donor tag; details: permeabilized HEK293 cells, with VCB; read-out: IC50 LRRK2 engagement in the presence of VCB protein
Protocol: as §1

T3 sequence (Q5S007 whole entry, the tested form may be a part): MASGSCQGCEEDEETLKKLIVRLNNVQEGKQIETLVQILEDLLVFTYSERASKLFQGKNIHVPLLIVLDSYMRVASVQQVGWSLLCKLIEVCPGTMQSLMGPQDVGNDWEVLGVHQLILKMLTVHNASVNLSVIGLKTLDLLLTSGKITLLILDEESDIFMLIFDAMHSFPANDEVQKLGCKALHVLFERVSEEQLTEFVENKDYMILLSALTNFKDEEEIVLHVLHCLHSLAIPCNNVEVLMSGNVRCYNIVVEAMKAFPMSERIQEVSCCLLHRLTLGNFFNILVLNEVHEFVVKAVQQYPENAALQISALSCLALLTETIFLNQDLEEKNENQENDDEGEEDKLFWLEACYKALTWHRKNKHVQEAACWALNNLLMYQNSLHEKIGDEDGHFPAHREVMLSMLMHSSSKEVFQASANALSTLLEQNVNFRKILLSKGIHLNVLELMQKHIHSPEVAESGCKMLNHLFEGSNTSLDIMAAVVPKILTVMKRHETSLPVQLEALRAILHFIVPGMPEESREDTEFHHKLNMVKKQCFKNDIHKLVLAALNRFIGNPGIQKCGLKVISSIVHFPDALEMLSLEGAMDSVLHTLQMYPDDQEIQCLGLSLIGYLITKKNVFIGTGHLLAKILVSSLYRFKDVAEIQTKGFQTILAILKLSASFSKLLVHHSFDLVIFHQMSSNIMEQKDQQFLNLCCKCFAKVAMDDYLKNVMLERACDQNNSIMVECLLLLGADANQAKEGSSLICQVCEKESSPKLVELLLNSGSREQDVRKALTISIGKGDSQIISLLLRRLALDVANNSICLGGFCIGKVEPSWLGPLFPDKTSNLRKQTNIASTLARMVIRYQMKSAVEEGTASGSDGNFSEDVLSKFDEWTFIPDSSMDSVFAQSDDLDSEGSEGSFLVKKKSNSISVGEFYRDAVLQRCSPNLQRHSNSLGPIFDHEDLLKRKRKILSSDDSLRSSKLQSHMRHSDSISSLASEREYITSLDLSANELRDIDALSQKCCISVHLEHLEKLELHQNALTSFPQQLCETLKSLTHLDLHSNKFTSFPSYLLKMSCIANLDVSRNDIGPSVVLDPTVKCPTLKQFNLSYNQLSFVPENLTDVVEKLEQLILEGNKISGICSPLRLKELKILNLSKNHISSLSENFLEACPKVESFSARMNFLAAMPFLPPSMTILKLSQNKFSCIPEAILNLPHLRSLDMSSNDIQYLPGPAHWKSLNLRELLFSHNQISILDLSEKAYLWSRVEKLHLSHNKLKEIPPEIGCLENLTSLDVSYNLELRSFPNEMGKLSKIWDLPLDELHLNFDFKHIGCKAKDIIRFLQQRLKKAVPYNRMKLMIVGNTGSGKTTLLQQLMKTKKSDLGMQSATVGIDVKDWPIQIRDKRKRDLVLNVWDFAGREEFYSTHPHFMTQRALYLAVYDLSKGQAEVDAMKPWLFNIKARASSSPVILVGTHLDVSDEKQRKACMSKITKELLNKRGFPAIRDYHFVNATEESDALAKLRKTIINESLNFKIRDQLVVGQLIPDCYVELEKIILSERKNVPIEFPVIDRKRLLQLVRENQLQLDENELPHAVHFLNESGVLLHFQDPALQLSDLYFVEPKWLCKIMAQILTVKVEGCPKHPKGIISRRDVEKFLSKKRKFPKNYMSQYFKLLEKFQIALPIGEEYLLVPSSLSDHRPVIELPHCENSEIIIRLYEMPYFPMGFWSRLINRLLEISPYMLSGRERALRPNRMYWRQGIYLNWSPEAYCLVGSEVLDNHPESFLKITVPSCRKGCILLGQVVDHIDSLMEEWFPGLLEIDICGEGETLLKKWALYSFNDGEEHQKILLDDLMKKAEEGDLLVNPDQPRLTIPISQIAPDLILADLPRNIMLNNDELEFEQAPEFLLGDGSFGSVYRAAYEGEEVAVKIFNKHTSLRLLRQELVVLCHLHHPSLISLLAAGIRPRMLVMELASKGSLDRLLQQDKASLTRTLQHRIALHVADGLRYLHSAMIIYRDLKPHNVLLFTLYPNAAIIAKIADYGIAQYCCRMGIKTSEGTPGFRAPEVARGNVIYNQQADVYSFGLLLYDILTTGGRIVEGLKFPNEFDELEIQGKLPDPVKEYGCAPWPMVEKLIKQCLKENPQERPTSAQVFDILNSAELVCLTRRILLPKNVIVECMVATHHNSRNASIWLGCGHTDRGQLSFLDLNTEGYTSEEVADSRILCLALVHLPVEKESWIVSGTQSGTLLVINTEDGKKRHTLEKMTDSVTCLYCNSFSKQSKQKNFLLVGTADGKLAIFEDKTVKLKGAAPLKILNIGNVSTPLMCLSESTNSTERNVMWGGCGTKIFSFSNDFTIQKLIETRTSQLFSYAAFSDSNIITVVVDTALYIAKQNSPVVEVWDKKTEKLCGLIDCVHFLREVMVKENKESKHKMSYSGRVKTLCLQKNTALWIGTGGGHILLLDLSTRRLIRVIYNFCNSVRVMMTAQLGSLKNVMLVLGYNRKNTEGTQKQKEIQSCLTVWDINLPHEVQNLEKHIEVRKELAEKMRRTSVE
T2 sequence (Q5S006 whole entry G2019S): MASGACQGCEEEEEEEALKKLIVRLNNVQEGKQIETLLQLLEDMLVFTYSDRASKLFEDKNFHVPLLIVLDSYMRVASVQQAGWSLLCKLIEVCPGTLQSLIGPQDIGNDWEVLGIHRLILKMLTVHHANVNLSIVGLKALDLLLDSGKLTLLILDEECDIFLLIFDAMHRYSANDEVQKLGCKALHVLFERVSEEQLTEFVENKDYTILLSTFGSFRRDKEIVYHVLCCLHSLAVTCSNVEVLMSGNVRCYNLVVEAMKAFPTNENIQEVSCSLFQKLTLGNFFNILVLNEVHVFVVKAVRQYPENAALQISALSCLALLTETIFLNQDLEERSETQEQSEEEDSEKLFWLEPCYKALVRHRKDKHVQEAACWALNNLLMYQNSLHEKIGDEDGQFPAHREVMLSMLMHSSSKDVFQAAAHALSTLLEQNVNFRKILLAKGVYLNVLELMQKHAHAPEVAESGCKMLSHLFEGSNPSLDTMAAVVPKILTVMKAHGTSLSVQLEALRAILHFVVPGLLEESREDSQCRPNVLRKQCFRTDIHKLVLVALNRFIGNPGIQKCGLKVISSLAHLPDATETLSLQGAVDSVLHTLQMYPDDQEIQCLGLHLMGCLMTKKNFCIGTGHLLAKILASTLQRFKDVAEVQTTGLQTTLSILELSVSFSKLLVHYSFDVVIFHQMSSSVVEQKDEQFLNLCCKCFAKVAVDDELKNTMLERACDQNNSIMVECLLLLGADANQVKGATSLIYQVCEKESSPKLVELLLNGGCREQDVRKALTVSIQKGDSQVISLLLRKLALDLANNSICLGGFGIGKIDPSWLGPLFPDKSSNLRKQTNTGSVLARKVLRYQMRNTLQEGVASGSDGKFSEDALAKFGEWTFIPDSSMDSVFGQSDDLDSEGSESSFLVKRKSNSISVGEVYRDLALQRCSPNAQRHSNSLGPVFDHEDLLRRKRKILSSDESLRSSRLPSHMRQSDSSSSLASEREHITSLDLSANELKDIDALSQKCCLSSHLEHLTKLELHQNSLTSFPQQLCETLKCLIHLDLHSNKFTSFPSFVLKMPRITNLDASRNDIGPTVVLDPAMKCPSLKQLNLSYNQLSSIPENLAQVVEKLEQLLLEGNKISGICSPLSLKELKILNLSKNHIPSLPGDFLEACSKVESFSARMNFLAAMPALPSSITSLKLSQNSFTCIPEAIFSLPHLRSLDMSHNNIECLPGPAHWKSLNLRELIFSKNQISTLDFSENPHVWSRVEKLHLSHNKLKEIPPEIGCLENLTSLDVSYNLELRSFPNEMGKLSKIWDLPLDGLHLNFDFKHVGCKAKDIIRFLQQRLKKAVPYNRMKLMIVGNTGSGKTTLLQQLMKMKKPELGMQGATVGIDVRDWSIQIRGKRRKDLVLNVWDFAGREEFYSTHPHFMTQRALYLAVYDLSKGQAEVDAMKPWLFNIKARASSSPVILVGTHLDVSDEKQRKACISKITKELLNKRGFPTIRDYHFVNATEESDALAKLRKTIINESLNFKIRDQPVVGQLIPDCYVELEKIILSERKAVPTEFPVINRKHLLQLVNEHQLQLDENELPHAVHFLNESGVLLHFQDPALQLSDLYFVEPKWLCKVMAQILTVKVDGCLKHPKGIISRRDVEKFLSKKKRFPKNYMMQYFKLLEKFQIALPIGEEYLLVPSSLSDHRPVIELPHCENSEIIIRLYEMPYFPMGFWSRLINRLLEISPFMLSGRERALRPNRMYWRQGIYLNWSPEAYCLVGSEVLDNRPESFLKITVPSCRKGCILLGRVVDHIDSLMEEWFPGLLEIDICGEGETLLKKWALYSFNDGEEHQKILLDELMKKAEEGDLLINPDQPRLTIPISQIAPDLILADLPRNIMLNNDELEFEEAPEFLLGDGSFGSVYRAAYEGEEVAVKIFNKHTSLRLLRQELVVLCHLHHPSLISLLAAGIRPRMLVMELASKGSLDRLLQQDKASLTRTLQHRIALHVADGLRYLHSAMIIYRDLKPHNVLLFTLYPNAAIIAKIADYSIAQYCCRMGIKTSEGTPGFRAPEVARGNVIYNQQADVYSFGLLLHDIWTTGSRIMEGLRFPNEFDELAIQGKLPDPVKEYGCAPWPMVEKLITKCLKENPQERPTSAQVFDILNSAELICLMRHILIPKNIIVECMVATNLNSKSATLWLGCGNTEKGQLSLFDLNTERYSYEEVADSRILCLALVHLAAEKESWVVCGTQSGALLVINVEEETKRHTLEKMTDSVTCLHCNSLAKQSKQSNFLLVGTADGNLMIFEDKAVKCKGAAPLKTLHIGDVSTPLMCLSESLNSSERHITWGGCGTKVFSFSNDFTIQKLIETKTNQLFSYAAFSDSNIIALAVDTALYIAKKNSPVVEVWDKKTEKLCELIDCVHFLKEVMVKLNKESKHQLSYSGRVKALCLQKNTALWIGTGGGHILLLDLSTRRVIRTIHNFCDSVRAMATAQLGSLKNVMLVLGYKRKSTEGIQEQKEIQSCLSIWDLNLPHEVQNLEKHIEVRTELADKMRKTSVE
T1 sequence (Q5S006 whole entry): as the sequence (Q5S006 whole entry G2019S) above, with S2019G counted along it

Structure (SMILES)	DC50 (LRRK2^WT [1]; 4 h treatment) [nM]	Dmax on WT MEFs (LRRK2^WT [1]; 4 h treatment)	Dmax (LRRK2^WT [1]; 4 h treatment) [%]	T1/2 of LRRK2^WT degradation (LRRK2^WT [1]; time course at 300 nM, WT MEFs) [h]	LRRK2 degradation (in words) (LRRK2^WT [2])	EC50 (LRRK2 pSer935; 4 h treatment) [nM]	T1/2 WT-pSer935-LRRK2 (LRRK2 pSer935; time course at 300 nM) [h]	Dmax at 0.3 µM (LRRK2^G2019S; time course at 300 nM) [%]	T1/2 of LRRK2^G2019S degradation (LRRK2^G2019S; time course at 300 nM) [h]	IC50 (LRRK2 [3]) [nM]	IC50 (LRRK2 [4]) [nM]	Dmax at 0.3 µM (LRRK2^WT [1]; time course at 300 nM, WT MEFs) [%]	mechanism of induced LRRK2 degradation (in words) (LRRK2^WT [2]; pretreatment with VH101, MLN4924, MG132, WT and LRRK2^G2019S MEFs)	Dmax on WT MEFs (LRRK2^WT [1]; 24 h treatment) [%]	T1/2 of LRRK2^WT degradation (LRRK2^WT [1]; time course at 1000 nM, WT MEFs) [h]	Selectivity Index (pSer935-LRRK2 dephosphorylation, WT vs G2019S MEFs) (LRRK2 pSer935; 24 h)	EC50 (LRRK2 pSer935; 24 h treatment) [nM]	T1/2 WT-pSer935-LRRK2 (LRRK2 pSer935; time course at 1000 nM) [h]	T1/2 of LRRK2^G2019S degradation (LRRK2^G2019S; time course at 1000 nM) [h]
CNc1nc(Nc2ccc(C(=O)N3CCN(C[C@H]4CC[C@@H](CSC(C)(C)[C@H](NC(=O)C5(F)CC5)C(=O)N5C[C@H](O)CC5C(=O)NCc5ccc(-c6scnc6C)cc5)CC4)CC3)cc2OC)ncc1Cl (some centres unmarked) [XL01134]	32	58%	59	2.7	hook effect	35	0.7	82	1.4	1100	790	–	–	–	–	–	–	–	–
CNc1nc(Nc2ccc(C(=O)N3CCN(C[C@H]4CC[C@H](CSC(C)(C)[C@H](NC(=O)C5(F)CC5)C(=O)N5C[C@H](O)CC5C(=O)NCc5ccc(-c6scnc6C)cc5)CC4)CC3)cc2OC)ncc1Cl (stereo partly drawn) [XL01126, (2S,4R)-1-((R)-3-((((1R,4R)-4-((4-(4-((5-chloro-4-(methylamino)pyrimidin-2-yl)amino)-3-methoxybenzoyl)piperazin-1-yl)methyl)cyclohexyl)methyl)thio)-2-(1-fluorocyclopropane-1-carboxamido)-3-methylbutanoyl)-4-hydroxy-N-(4-(4-methylthiazol-5-yl)benzyl)pyrrolidine-2-carboxamide]	32	80-90%	82	1.2	almost complete LRRK2 degradation	18	0.6	–	0.6	2000	350	82	dependent on the proteasome pathway	–	–	–	–	–	–
CNc1nc(Nc2ccc(C(=O)N3CCN(CCOCCOCCSC(C)(C)[C@H](NC(=O)C4(F)CC4)C(=O)N4C[C@H](O)C[C@H]4C(=O)NCc4ccc(-c5scnc5C)cc4)CC3)cc2OC)ncc1Cl [SD75, (2S,4R)-1-((R)-3-((2-(2-(2-(4-(4-((5-chloro-4-(methylamino)pyrimidin-2-yl)amino)-3-methoxybenzoyl)piperazin-1-yl)ethoxy)ethoxy)ethyl)thio)-2-(1-fluorocyclopropane-1-carboxamido)-3-methylbutanoyl)-4-hydroxy-N-(4-(4-methylthiazol-5-yl)benzyl)pyrrolidine-2-carboxamide]	–	–	–	–	moderate LRRK2 degradation; also recorded: partial LRRK2 degradation	–	–	–	–	1100	1400	–	–	50	5.1	2.7	745	3.6	1.1

Source: patent US20260001875A1, “AMINOPYRIMIDINYL DERIVATIVES FOR THE TREATMENT OF PARKINSON'S DISEASE” (UNIVERSITY OF DUNDEE, priority 2022, published 2026)
